Test system: HaCat cells
Test: m6A methylation level of drug-treated HaCat keratinocytes by nanopore sequencing (Example 14)
Format: cell-based, human
Conditions: 50 nM drug, 24 hours
Protocol: 1*10^8 HaCat cells were seeded in culture dishes, into which 50 nM drugs (including sorafenib, capecitabine, docetaxel, and osimertinib) were added, respectively. The cells were cultured in an incubator containing 5% CO2 at 37° C. for 24 hours and washed with PBS after culture media were removed. Centrifugation was performed, the supernatant was discarded, and then, 400 μL of an RLT cell lysis buffer (QIAGEN, Cat. #79216) was added. A portion of samples were selected, into which 400 μL of 70% ethanol was added. The mixture was evenly stirred and then transferred to an RNeasy mini column, and RNA was extracted using an RNeasy mini kit (QIAGEN, Cat. #74104). 2 μL of an RNA sample was selected and dissolved in 98 μL of a 10 mM Tris-HCl buffer solution, and the absorbance at 260 nm was measured using a Nanodrop (Thermo Fisher Scientific) to determine the RNA concentration.
40 μg of an RNA sample was selected for enrichment of mRNA (PolyA+RNA) using an NEBNext Poly(A) mRNA magnetic isolation module (NEB, Cat. #E7490), and then, a 3′ end of the above enriched mRNA (PolyA+RNA) molecule was ligated with reverse transcription adapter RTA using a direct RNA sequencing kit (Oxford Nanopore Technologies, Cat. #SQK-RNA002). A reverse transcription reaction was performed with the mRNA (PolyA+RNA) molecule as a template to synthesize a complementary strand, a terminal end of the reverse transcription adapter RTA was ligated with a sequencing adapter (RNA adapter) to form a final sequencing library, and quantitative detection was performed using a Qubit™ dsDNA HS assay kit (Invitrogen, Cat. #LOT2133187).
After quality inspection of the library, the prepared sequencing library was loaded onto a PromethION flow cell chip (Oxford Nanopore Technologies, Cat. #FLO-MIN106D), and placed in a PromethION sequencer (Oxford Nanopore Technologies) for sequencing by selecting a matched sequencing mode. Basecalling was performed on sequencing data through guppy, and m6A methylation analysis was performed on original fast5 data.

SMILES | m6A methylation level of HaCat cells, increase compared with blank control group
C=CC(=O)Nc1cc(Nc2nccc(-c3cn(C)c4ccccc34)n2)c(OC)cc1N(C)CCN(C)C [Osimertinib, osimertinib, reference compound] | 5.13 times
CNC(=O)c1cc(Oc2ccc(NC(=O)Nc3ccc(Cl)c(C(F)(F)F)c3)cc2)ccn1 [Sorafenib, sorafenib, reference compound] | 5.05 times

Test system: HaCaT keratinocytes
Test: Inhibition of HBEGF-induced differentiation of HaCaT keratinocytes, marker mRNA by RT-PCR (Example 21)
Format: cell-based, human
Conditions: 2.5 ng/mL human recombinant HBEGF protein + test compound, 24 hours
Protocol: Human HaCaT keratinocytes were cultured in a DMEM culture medium containing 10% fetal bovine serum, 100 U/mL penicillin, and 100 µg/mL streptomycin. The cells were seeded into a 96-well plate at a density of […] and placed in an incubator containing 5% carbon dioxide for culture at 37° C. for 24 hours. An equal volume of DMSO was added into control well 1, a 2.5 ng/mL human recombinant HBEGF protein (Abcam, ab205523) was added into control well 2, and a 2.5 ng/mL human recombinant HBEGF protein and corresponding concentrations of test compounds were added into sample wells. The cells were continuously cultured for 24 hours, washed with PBS, and then collected by high-speed centrifugation. Total RNA was extracted using a Trizol reagent (Sigma Aldrich). 1 μg of RNA was reverse-transcribed into cDNA using a cDNA reverse transcription kit (Transgene Biotech, AT311-03). 1.25 μL of a primer (with a primer sequence shown in Table 2), 10 μL of an iTag Universal SYBR Green supermix (Bio-Rad, 172-S125), and an appropriate amount of DEPC ultrapure water were added to formulate 20 μL of a reaction solution to perform an RT-PCR reaction. Upon completion of the reaction, the reaction solution was subjected to agarose gel electrophoresis to determine the mRNA expression amounts of keratinocyte differentiation markers KRT1, KRT10, Loricrin, and Involucrin.

SMILES | mRNA expression amounts of HaCaT differentiation markers KRT1, KRT10, Loricrin, and Involucrin
NC(=O)C1CCCc2c1[nH]c1ccc(Cl)cc21 (stereo not drawn) [Compound 2, 6-chloro-2,3,4,9-tetrahydro-1H-carbazole-1-carboxamide] | significantly inhibited
NC(=O)[C@H]1CCCc2c1[nH]c1ccc(Cl)cc21 [Compound 2b, (S)-6-chloro-2,3,4,9-tetrahydro-1H-carbazole-1-carboxamide] | significantly inhibited
NC(=O)C1c2[nH]c3ccc(Cl)cc3c2C2CCC1C2 [Compound 5a, (S)-2-chloro-5,6,7,8,9,10-hexahydro-7,10-methanocyclohepta[b]indole-6-carboxamide] | significantly inhibited
CN1CC[C@H](C(N)=O)c2[nH]c3ccc(Cl)cc3c21 [Compound 8b, (S)-8-chloro-1-methyl-2,3,4,5-tetrahydropyrido[3,2-b]indole-4-carboxamide] | significantly inhibited

From patent US20260226006A1, “INDOLE COMPOUND, PREPARATION METHOD THEREFOR AND USE THEREOF” (SUZHOU MERNA THERAPEUTICS CO. LTD, priority 2023, published 2026)
